Results from patent US20250325676A1, “CAMPTOTHECIN PRODRUG AND PHARMACEUTICAL COMPOSITION THEREOF” (TIANJIN HEMAY ONCOLOGY PHARMACEUTICAL CO., LTD, priority 2022, published 2025).
pIC50: −log10 of the molar value.

Legend:
NCI-N87 = experiment: In vitro inhibition of human tumor cells, NCI-N87, MTT method; assay type: cell-based
[1] = system: human colon cancer HCT116; details: 30 mg/kg i.v. qw × 2; HCT116 large tumor after irinotecan
Description: When the tumor volume was more than 600 mm^3 and stable growth was maintained, the experimental animals were randomly divided by the remainder method and administered according to the size of the tumor volume. […] The subcutaneous tumors were stripped and weighed.
T was the subject and C is the model control.
Tumor volume growth was observed on a regular basis after completion of dosing.

MDA-MB-468 = experiment: In vitro inhibition of human tumor cells, MDA-MB-468, SRB method
Protocol: 1.1.2 Cell culture method: Cells were cultured in complete medium, 37° C., 5% CO2, saturated humidity to log growth phase (adherent cells generally attended to complete fusion), and cells were collected for subsequent experiments (adherent cells were first digested with trypsin/ethylene diamine tetraacetic acid (EDTA) to remove adherent).
1.1.3 96-well cell culture plates (hereinafter referred to as 96-well plates) were inoculated with a certain number of cells (see Table 1 for details). The cells were allowed to adhere overnight. […] Finally, the total amount of cell protein in the assay wells was determined by the SRB method, or the cell viability was determined by the MTT method:
The culture medium was aspirated from the wells and the cells were fixed for 1 hour or more by adding 10% trichloroacetic acid. Trichloroacetic acid was removed. The resultant was washed with H2O and stained with 0.4% SRB for 15 to 30 minutes. Excess SRB was removed. The resultant was washed with 1% acetic acid. The protein-bound SRB was dissolved by adding 10 mM of 100 μl Tris (trishydroxymethylaminomethane). Tests were carried out at the wavelength of 570 nm.
1.1.4 dilution and addition of β-glucuronidase: 1 to 2 mg of β-glucuronidase was weighed and dissolved in PBS to give a 2 mg/ml of stock solution. […] 80 μl of enzyme working solution was added to the enzyme-containing assay wells. The amount of β-glucuronidase was 1 μg/wells. No enzyme-containing assay wells were added to the 80 μl of complete medium.
The assay wells were charged with 20 μl of 10× compound working solution. The final volume was 200 μl per well. The DMSO concentration was 0.1%.
1.1.6 Compound inhibition activity calculation: The test included a compound test group, a compound-free positive solvent control group (PC) and a compound-free negative solvent control group (NC). […] The average inhibition rate and the standard deviation (SD) were obtained from the repeated test wells. The average inhibition rate was plotted on the basis of the compound concentration as an abscissa and distributed in the form of logarithms. The curve was fitted to the Logistic 4 parameter equation. […] The test was generally repeated to obtain 3 valid results.

HCT116 = experiment: In vitro inhibition of human tumor cells, HCT116, MTT method; assay type: cell-based
Protocol: (§1) The cells were allowed to adhere overnight.
(§2) Adherent cells: Culture medium was aspirated and 100 μl/wells of basal culture (generally refers to medium without fetal bovine serum (FBS) and other additives) containing 0.5 mg/ml MTT were added. The cells were cultured for 3 hours. MTT-containing basal medium was aspirated and 100 μl/wells of DMSO were added to dissolve formazan.
(§3) Unstably adherent cells: Unstably adherent cells were directly added to the MTT solution to achieve the concentration of 0.5 mg/ml and cultured for 3 hours. The ternary solution in an equal volume to the system was added to the system to dissolve the formazan.
(§4) The DMSO concentration was 0.1%.

SW620 = experiment: In vitro inhibition of human tumor cells, SW620, SRB method; assay type: cell-based
Description: as §1
(§5) Trichloroacetic acid was removed. […] Excess SRB was removed.
as §4

LoVo = experiment: In vitro inhibition of human tumor cells, LoVo, SRB method; assay type: cell-based
Description: as §1, §5, §4

BxPC-3 = experiment: In vitro inhibition of human tumor cells, BxPC-3, MTT method; assay type: cell-based
Protocol: as §1, §2, §3, §4

NCI-H460 = experiment: In vitro inhibition of human tumor cells, NCI-H460, MTT method; assay type: cell-based
Protocol: as §1, §2, §3, §4

[2] = system: human small cell lung cancer NCI-H446; details: 20 mg/kg i.v. qw × 2; NCI-H446 model
Protocol: An allogeneic transplantation model of human small cell lung cancer NCI-H446 was established in nude mice subcutaneously using a tumor block inoculation method. When the tumor volume of the allogeneic transplantation was about 100 to 300 mm^3 and remained stable, the experimental animals were randomly divided into groups according to the size of the tumor volume (day 0, i.e., d0) using a remainder method. The tumor volume was measured 2 to 3 times a week. At the end of the dosage period, the experimental animals were sacrificed. The subcutaneous tumors were peeled and weighed. The anti-tumor activity of the drug against the model was evaluated based on tumor volume and tumor weight-related data.
The calculation formula of the tumor volume was: Volume=0.5×long diameter×short diameter×short diameter.
V0 was the resulting tumor volume measured at the time of dosing in groups (i.e., d0) and Vt was the tumor volume at each measurement.
T was the subject and C was the model control.
TRTV was the average RTV of the subject, and CRTV was the average RTV of the model control group.
Wn: average body weight of each group of experimental animals on day n, and W0: average body weight of each group of experimental animals on day 0.

[3] = No βGU (direct effects of compound on cells)

Substance | pIC50 (NCI-N87; Adding βGU) | pIC50 (NCI-N87; No βGU) | pIC50 (MDA-MB-468; Adding βGU) | pIC50 (MDA-MB-468; No βGU) | pIC50 (HCT116; Adding βGU (β-glucuronidase)) | pIC50 (HCT116; [3]) | pIC50 (SW620; Adding βGU) | pIC50 (SW620; No βGU) | pIC50 (LoVo; Adding βGU) | pIC50 (LoVo; No βGU) | pIC50 (BxPC-3; Adding βGU) | pIC50 (BxPC-3; No βGU) | pIC50 (NCI-H460; Adding βGU) | pIC50 (NCI-H460; No βGU) | further results
(2S,3S,4S,5R,6S)-6-(3-((1-(2-(2-((4′-(E)-(8-amino-1-hydroxy-5,7-disulfonicnaphthalen-2-yl)diazenyl)-3,3′-dimethyl-[1,1′-biphenyl]-4-yl)amino)-3-oxopropoxy)ethyl)-1H-1,2,3-triazol-4-yl)methoxy)-4-((((S)-4,11-diethyl-4-hydroxy-3,14-dioxy-3,4,12,14-tetrahydro-1H-pyrano[3′,4′:6,7]indolazino[1,2-b]quinolin-9-yl)oxy)methyl)phenoxy)-3,4,5-trihydroxytetrahydro-2H-pyran-2-carboxylate trisodium [Example 101] | 7.29 | 5.91 | 7.96 | 6.43 |  |  |  |  |  |  |  |  |  |  | Relative volume RTV (X ± S.D.) [1]: 0.90 ± 0.20; T/C (%) [1]: 24.2%; Tumor inhibition rate (%) [1]: 81.6%; Tumor weight (g, X ± S.D.) [1]: 0.501 ± 0.081 g
(2S,3S,4S,5R,6S)-6-(3-((1-(3-(2-((4′-(E)-(8-amino-1-hydroxy-5,7-disulfonicnaphthalen-2-yl)diazenyl)-3,3′-dimethyl-[1,1′-biphenyl]-4-yl)amino)-2-oxoethoxy)propyl)-1H-1,2,3-triazol-4-yl)methoxy)-4-((((S)-4,11-diethyl-4-hydroxy-3,14-dioxy-3,4,12,14-tetrahydro-1H-pyrano[3′,4′:6,7]indolazino[1,7]quinolin-9-yl)oxy)methyl)phenoxy)-3,4, 5-trihydroxytetrahydro-2H-pyran-2-carboxylate trisodium [Example 96] | 7.52 | 6.02 | 8.12 | 6.67 |  |  |  |  |  |  |  |  |  |  | Relative volume RTV (X ± S.D.) [1]: 0.78 ± 0.03; T/C (%) [1]: 21.0%; Tumor inhibition rate (%) [1]: 84.4%; Tumor weight (g, X ± S.D.) [1]: 0.425 ± 0.091 g
(2S,3S,4S,5R,6S)-6-(3-((1-(6-((4′-((E)-(8-amino-1-hydroxy-5,7-disulfonicnaphthalen-2-yl)diazenyl)-[1,1′-biphenyl]-4-yl)amino)-6-oxohexyl)-1H-1,2,3-triazol-4-yl)methoxy)-4-((((S)-4,11-diethyl-4-hydroxy-3,14-dioxo-3,4,12,14-tetrahydro-1H-pyrano[3′,4′:6,7]indolazino[1,7]quinolin-9-yl)oxy)methyl)-2-methylphenoxy)-3,4,5-trihydroxytetrahydro-2H-pyran-2-carboxylate trisodium [Example 18] | 7.54 |  | 8.26 | 6.96 | 8.19 | 6.73 | 8.17 | 6.69 | 7.72 | 6.09 | 7.77 | 5.79 | 8.12 | 6.27 | inhibition rate at 2 μM (NCI-N87; No βGU): 2 μM about 49.3%
(2S,3S,4S,5R,6S)-6-(3-((1-(8-((4′-((E)-(8-amino-1-hydroxy-5,7-disulfonicnaphthalen-2-yl)diazenyl)-3,3′-dimethyl-[1,1′-biphenyl]-4-yl)amino)-8-oxooctyl)-1H-1,2,3-triazol-4-yl)methoxy)-4-((((S)-4,11-diethyl-4-hydroxy-3,14-dioxy-3,4,12,14-tetrahydro-1H-pyrano[3′,4′:6,7]indolazino[1,2-b]quinolin-9-yl)oxy)methyl)-2-methylphenoxy)-3,4,5-trihydroxytetrahydro-2H-pyran-2-carboxylate trisodium [Example 48] | 7.28 | 5.92 | 8.14 | 7.03 | 8.23 | 6.92 | 8.00 | 6.64 | 7.55 | 6.43 | 7.55 | 6.36 | 8.17 | 6.38 | 
(2S,3S,4S,5R,6S)-6-(3-((1-(6-((4′-((E)-(8-amino-1-hydroxy-5,7-disulfonicnaphthalen-2-yl)diazenyl)-[1,1′-biphenyl]-4-yl)amino)-6-oxohexyl)-1H-1,2,3-triazol-4-yl)methoxy)-4-((((S)-4-ethyl-4-hydroxy-3,14-dioxo-3,4,12,14-tetrahydro-1H-pyrano[3′,4′:6,7]indolazino[1,2-b]quinolin-9-yl)oxy)methyl)phenoxy)-3,4,5-trihydroxytetrahydro-2H-pyran-2-carboxylate trisodium [Example 29] | 7.19 |  | 7.85 | 6.10 | 7.77 | 5.87 | 8.02 | 6.46 | 7.26 | 5.92 | 7.42 | 6.04 | 7.52 |  | inhibition rate at 2 μM (NCI-N87; No βGU): 2 μM about 31.0%; inhibition rate at 2 μM (NCI-H460; No βGU, 2 μM): 2 μM about 43.9%
(2S,3S,4S,5R,6S)-6-(3-((1-(6-((4′-((E)-(8-amino-1-hydroxy-5,7-disulfonicnaphthalen-2-yl)diazenyl)-3,3′-dimethoxy-[1,1′-biphenyl]-4-yl)amino)-6-oxohexyl)-1H-1,2,3-triazol-4-yl)methoxy)-4-(((S)-4-ethyl-4-hydroxy-3,14-dioxy-3,4,12,14-tetrahydro-1H-pyrano[3′,4′:6,7]indolazino[1,2-b]quinolin-9-yl)oxy)methyl)phenoxy)-3,4,5-trihydroxytetrahydro-2H-pyran-2-carboxylate trisodium [Example 31] | 7.21 | 5.75 | 7.96 | 6.48 | 8.03 | 6.47 | 8.00 | 6.66 | 7.49 | 6.16 | 7.68 | 6.29 | 7.72 | 6.27 | 
(2S,3S,4S,5R,6S)-6-(3-((1-(6-((4′-((E)-(8-amino-1-hydroxy-5,7-disulfonicnaphthalen-2-yl)diazenyl)-3,3′-dimethyl-[1,1′-biphenyl]-4-yl)amino)-6-oxohexyl)-1H-1,2,3-triazol-4-yl)methoxy)-4-((((S)-4,11-diethyl-4-hydroxy-3,14-dioxy-3,4,12,14-tetrahydro-1H-pyrano[3′,4′:6,7]indolazino[1,2-b]quinolin-9-yl)oxy)methyl)2-methylphenoxy)-3,4,5-trihydroxytetrahydro-2H-pyran-2-carboxylate trisodium [Example 14] | 7.59 | 5.83 | 8.36 | 6.97 | 8.48 | 6.76 | 8.20 | 6.82 | 8.00 | 6.69 | 7.80 | 6.39 | 8.06 | 6.27 | Relative volume RTV (X ± S.D.) [2]: 0.69 ± 0.45; T/C (%) [2]: 10.2%; Tumor inhibition rate (%) [2]: 91.3%; Tumor weight (g, X ± S.D.) [2]: 0.085 ± 0.075 g
